Measurements published in patent EP0612246B1, “PHARMACEUTICAL COMPOSITIONS OF GALLIUM COMPLEXES OF 3-HYDROXY-4-PYRONES” (BERNSTEIN, Lawrence Richard, priority 1991, dated 1993).

Experiments:
[1] = Oral bioavailability study in rabbits: serum gallium by graphite furnace atomic absorption after oral gavage; type: in vivo, New Zealand white rabbits; conditions: for Mean gallium content of rabbit serum: 10 mg elemental gallium per kg, fasted 18 hours, 3 animals
Protocol: A test of the oral bioavailability of the 3:1 ethyl maltol:gallium complex in rabbits was conducted. In this test, the complex was given to rabbits and compared to a solution of gallium nitrate. Six female New Zealand white rabbits weighing between 2.68 and 2.91 kg were used, and were not fed for 18 hours before starting the experiment. A suspension of the 3:1 gallium ethyl maltol complex in double distilled water was prepared with a concentration of 10 mg elemental gallium per 4 ml of suspension. […] A small amount of solid sodium carbonate was added to the latter solution to bring the pH up to about 6. Each of the two solutions was given to three rabbits by oral gavage (through a tube inserted through the mouth to the stomach) in the amount of 4 ml per kg of body weight. The stomach tubes were flushed by three ml of water following administration of the solutions.
Six ml of blood was taken from each rabbit at 1 hour, 2 hours, 4 hours, 8 hours, and 24 hours following administration of the solutions, and the serum separated and frozen. Control samples of blood were taken 24 hours earlier. The frozen serum samples were then sent to an independent testing laboratory for determination of the gallium contents by graphite furnace atomic absorption analysis. The testing laboratory received numbered serum samples, and never had any knowledge of the experimental conditions used to produce the samples. Due to uncertainties in the analytical procedures for gallium in serum, the relative proportions of gallium in the serum samples are considered more significant than the actual reported concentrations.
It is important to note that no attempt was made to counteract the adverse effects of the 3:1 gallium ethyl maltol complex being exposed to the acidic conditions of the stomach. This study should therefore be considered to give a minimal value for the oral bioavailability of the gallium ethyl maltol complex compared to gallium nitrate.

[2] = type: physicochemical
Protocol: The stability of the neutral 3:1 maltol:gallium complex was studied in aqueous solutions at various pH values. The complex was studied at two concentrations in double distilled deionized water: 2.5 X 10^-6 M and 1.0 X 10^-2 M. The pH was adjusted by adding either 1N HCl or 1N Na2CO3. The stability of the complex was determined using ultraviolet spectroscopy over the region 200-450 nm at 25°C. Several absorption peaks are observed in this range, including those at about 212-217 nm, 248 nm, 273 nm, 318 nm, and 385 nm. An isobesic point occurs over much of the pH range at about 290 nm. In the very dilute solutions (2.5 X 10^-6 M), the neutral 3:1 complex appears to be stable from about pH 4.5 to 9.5. For the less dilute solutions (1.0 X 10^-2 M), the determination was more difficult due to the very high absorbance.

CCc1occc(=O)c1[O][Ga]([O]c1c(CC)occc1=O)[O]c1c(CC)occc1=O [gallium ethyl maltol]
absorption compared to gallium nitrate of equal volume and gallium concentration ([1]; rabbit, in vivo, po): significantly higher amounts

Cc1occc(=O)c1[O-].Cc1occc(=O)c1[O-].Cc1occc(=O)c1[O-].[Ga+3] [gallium maltol]
stability region (pH) [2]: very similar to that of the highly dilute solution, possibly slightly wider

gallium nitrate
Mean gallium content of rabbit serum ([1]; 1 hour after oral gavage): 51 ng/mL
Mean gallium content of rabbit serum ([1]; 2 hours after oral gavage): 99 ng/mL
Mean gallium content of rabbit serum ([1]; 4 hours after oral gavage): 118 ng/mL
Mean gallium content of rabbit serum ([1]; 8 hours after oral gavage): 103 ng/mL
Mean gallium content of rabbit serum ([1]; 24 hours after oral gavage): 64 ng/mL
